From patent publication US11649238B2, “Substituted pyrazolo[1,5-a]pyrimidines as PI4K inhibitors” (GLAXOSMITHKLINE INTELLECTUAL PROPERTY DEVELOPMENT LIMITED, priority 2018, dated 2023) come the findings set out here.

Data set [1] has as its target PI4KIIIβ (Homo sapiens, UniProt Q9UBF8). Briefly: Residence Time Assay (Caliper conditioning assay and jump dilution). The data set is classed as biochemical. The settings on record: jump dilution, 2 mM ATP, 1 μM Bodipy-PI. On the procedure: Caliper Conditioning Assay
Compound dilutions were prepared in 100% DMSO using a 1 in 3 serial step dilution and a top concentration of 1 mM. A 200 nL stamp from a 12-point titration was transferred to a black 384-well Greiner assay plate ensuring a final DMSO concentration of 1% across the plate and a top final concentration of inhibitor of 10 μM in 20 μL final assay volume. To a well of a 384-well assay plate 10 μL of 2× Enzyme buffer was pre-incubated with compound for 1 h. Buffer without enzyme was used as 100%-inh control. 10 μL of 2× substrate solution was added to initiate the assay such that the final concentrations were 2 mM ATP and 1 μM Bodipy-PI and the plate was incubated at 25° C. for 3 hours. The enzymatic reaction was terminated by adding 40 μL of stop buffer and Substrate (PI) and product (PIP) present in each sample were separated electrophoretically using a LabChip 3000 capillary electrophoresis instrument CALIPER LABCHIP 3000 Drug Discovery System and detected using blue laser (480 nm) for excitation and green CCD (520 nm) for detection (CCD2). Negative control samples (0%-inhibition in the absence of inhibitor) and positive control samples (100%-inhibition, in the absence of enzyme) were assembled in replicates of 48 (4 replicates per caliper sipper) and were used to calculate %-inhibition values in each test well. Percent inhibition (Pinh) was determined using following equation: Pinh=(PSRO %−PSRinh)/(PSRO %−PSR100%)×100
Where PSRinh is the product sum ratio in the presence of inhibitor, PSRO % is the average product sum ratio in the absence of inhibitor and PSR100% is the average product sum ratio in 100%-inhibition control samples; the IC50 values of inhibitors are determined by fitting the inhibition curves (Pinh versus inhibitor concentration) to the 4 parameter sigmoid dose-response model using XLfit 4 software (IBDS).
In a small Eppendorf tube, 5 μL of 2× enzyme solution (0.4 μM-0.8 μM) was mixed with 5 μL 2× compound solution containing 40 to 120-fold the IC50 value determined at 2 mM ATP as described above, and incubated for 1 h at room temperature. The assay was initiated by rapidly mixing 2 μL of the enzyme preincubation mixture with 800 μL substrate mix containing 2 mM ATP and 1 μM Bodipy-PI. 60 μL of each sample was transferred into low volume Greiner 384-well plate, and the Substrate (PI) and product (PIP) present in each sample were separated electrophoretically using a LabChip 3000 capillary electrophoresis instrument CALIPER LABCHIP 3000 Drug Discovery System and detected using blue laser (480 nm) for excitation and green CCD (520 nm) for detection (CCD2) for approximately 8 h (200 measurements from each well). […]

Data set [2] is described as follows: Spleen Concentration Assay. The note with it: male, Wistar Han, rat, intravenous, 1 mg/kg, intravenous infusion 1 mg/kg over 1 h, single male Wistar Han rat, 12 hours after the start of dosing. The data set is classed as in vivo. As to the method: e) Spleen Concentration Assay Compounds 17, 18, 19, 22 and 23 were tested in this spleen accumulation assay. Compounds were administered intravenously to rats to determine what the level of the compound in the spleen would be if all of the inhaled dose was absorbed (either orally or through the lungs) and systemic circulation was exposed to the full dose. Compounds 17, 19, 22 and 23 were formulated in 2% DMSO in Kleptose (aq, 10% w/v). Compound 18 was formulated in a 5:45:50 ratio of DMSO:PEG200:water. Formulations were administered as intravenous infusions (1 mg/kg over 1 h) to a single male, Wistar Han rat. 12 hours after the start of dosing, rats were euthanised and spleens were collected. Approximately 0.5 g samples of spleen were taken and homogenised in 4 mL water. 100 μL of the resulting homogenates were prepared by protein precipitation with 300 μL of acetonitrile containing an internal standard and assayed (along with calibration standards prepared in the same manner) by reversed-phase liquid chromatography-mass spectrometry, using a heated electrospray source and operated in the positive ion multiple reaction monitoring mode. The liquid chromatography column used was a Waters Cortecs C18 2.7 μm particle size, 50×2.1 mm column at 60° C., and the mobile phase, operated as a gradient, utilised (A) 0.1% formic acid (aq) and (B) 0.1% formic acid in acetonitrile, operated at a flow rate of 1 mL/min.

Sequence of PI4KIIIβ (Q9UBF8 whole entry): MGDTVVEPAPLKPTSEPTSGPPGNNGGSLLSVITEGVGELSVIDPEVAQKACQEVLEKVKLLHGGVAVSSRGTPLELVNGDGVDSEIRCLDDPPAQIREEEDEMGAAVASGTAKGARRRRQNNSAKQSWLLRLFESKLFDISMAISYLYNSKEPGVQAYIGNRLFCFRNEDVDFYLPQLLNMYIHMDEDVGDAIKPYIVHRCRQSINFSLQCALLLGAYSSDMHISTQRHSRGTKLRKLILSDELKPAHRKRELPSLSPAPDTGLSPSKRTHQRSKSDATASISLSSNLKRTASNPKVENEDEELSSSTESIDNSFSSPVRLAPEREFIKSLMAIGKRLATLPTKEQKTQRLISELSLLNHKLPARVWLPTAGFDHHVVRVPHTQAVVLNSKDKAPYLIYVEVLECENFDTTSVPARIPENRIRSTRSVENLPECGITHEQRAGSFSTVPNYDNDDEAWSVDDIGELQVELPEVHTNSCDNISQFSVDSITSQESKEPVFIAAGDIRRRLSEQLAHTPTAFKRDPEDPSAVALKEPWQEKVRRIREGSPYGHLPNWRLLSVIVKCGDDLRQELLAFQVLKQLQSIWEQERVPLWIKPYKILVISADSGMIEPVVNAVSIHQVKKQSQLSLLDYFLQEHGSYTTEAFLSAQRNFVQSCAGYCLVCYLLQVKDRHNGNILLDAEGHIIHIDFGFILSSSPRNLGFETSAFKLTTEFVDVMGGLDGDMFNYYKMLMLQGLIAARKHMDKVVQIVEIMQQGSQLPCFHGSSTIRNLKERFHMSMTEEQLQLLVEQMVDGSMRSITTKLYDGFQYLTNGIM

With `COc1ccc(-c2c(C)nn3c(NCc4cccc(-c5nccn5C)c4)cc(C(C)(C)O)nc23)cc1C(=O)N(C)C1CCOCC1` [Compound 21, 5-(5-(2-Hydroxypropan-2-yl)-2-methyl-7-((3-(1-methyl-1H-imidazol-2-yl)benzyl)amino)pyrazolo[1,5-a]pyrimidin-3-yl)-2-methoxy-N-methyl-N-(tetrahydro-2H-pyran-4-yl)benzamide], the residence time in data set [1] was 528 min. `Cc1ccc(-c2c(C)nn3c(NCc4cccc(-c5nccn5C)c4)cc(C(C)(C)O)nc23)cc1C(=O)N(C)[C@@H](C)CO` [Compound 22, (S)—N-(1-hydroxypropan-2-yl)-5-(5-(2-hydroxypropan-2-yl)-2-methyl-7-((3-(1-methyl-1H-imidazol-2-yl)benzyl)amino)pyrazolo[1,5-a]pyrimidin-3-yl)-N,2-dimethylbenzamide] displayed a residence time in data set [1] of 1670 min. Moreover, in data set [2], the concentration at 12 h is under 7 ng/g. In data set [1], `Cc1ccc(-c2c(C)nn3c(NCc4cccc(-c5nccn5C)c4)cc(C(C)(C)O)nc23)cc1C(=O)N(C)CCCO` [Compound 17, 5-(5-(2-Hydroxypropan-2-yl)-2-methyl-7-((3-(1-methyl-1H-imidazol-2-yl)benzyl)amino)pyrazolo[1,5-a]pyrimidin-3-yl)-N-(3-hydroxypropyl)-N,2-dimethylbenzamide] had a residence time of 542 min. As to `CCN(CCO)C(=O)c1cc(-c2c(C)nn3c(NCc4cccc(-c5nccn5C)c4)cc(C(C)(C)O)nc23)ccc1OC` [Compound 19, N-ethyl-N-(2-hydroxyethyl)-5-(5-(2-hydroxypropan-2-yl)-2-methyl-7-((3-(1-methyl-1H-imidazol-2-yl)benzyl)amino)pyrazolo[1,5-a]pyrimidin-3-yl)-2-methoxybenzamide], the residence time in data set [1] turned out to be 997 min. In addition, in data set [2], the concentration at 12 h is under 7 ng/g.
